From PMC11040352, “CD38‐Specific Gallium‐68 Labeled Peptide Radiotracer Enables Pharmacodynamic Monitoring in Multiple Myeloma with PET” (Advanced Science, 2024)
Where two headings read alike, the source gives them in different places.

How the values were obtained:
[1] = Ex vivo biodistribution in mice with MM1S tumor xenografts; settings: NSG, mouse; for tissue uptake at 1 h / tissue to tissue ratio at 1 h: 60 min p.i.; for tissue uptake at 1.5 h: 90 min p.i.; for tissue uptake at 2 h: 120 min p.i.; for tissue uptake at 5 min: 5 min p.i.; for tissue uptake at 0.5 h: 30 min p.i.
Experimental: (§1) Animal studies were performed under Johns Hopkins University Animal Care and Use Committee (ACUC‐approved protocol (Principal investigator: Sridhar Nimmagadda, Ph.D. and Protocol number M021M175). Male and female NSG mice (5‐6 weeks old) were used to establish xenografts by administering 3 million cells (50% Corning Matrigel) subcutaneously to form various tumor models within 3–4 weeks. Imaging or biodistribution studies (n = 3–5) were conducted on mice with tumor volumes of 100–200 mm^3. Disseminated tumor models were developed by injecting 4–5 million cells in saline intravenously for MOLP8 and MM1S‐Luc models (n = 4–5). Luciferase expressing MM1S cell line (MM1S‐Luc) was used to monitor cancer cell dissemination in the body. Tumor establishment was confirmed by injecting D‐Luciferin intraperitoneally (150 mg kg^−1) and imaged mice after 10 min in IVIS bioluminescence imaging system. Bone marrow tumors were ready for imaging after 25–30 d of implantation.
(§2) Mice with 100–200 mm^3 tumor volume were used for ex vivo biodistribution studies. For radiotracer pharmacokinetics studies, mice with MOLP8 tumor xenografts received ≈80 µCi (2.96 MBq) [^68Ga]Ga‐AJ206 and were sacrificed at pre‐determined time points (5, 30, 60 and 120 min). Similarly, for dosimetry study, mice with MM1S tumor xenografts received ≈80 µCi (2.96 MBq) of [^68Ga]Ga‐AJ206 and were sacrificed at pre‐determined time points (5, 30, 60, 90 and 120 min). All other mice were injected with ≈50µCi (1.85 MBq) [^68Ga]Ga‐AJ206 and were sacrificed at 60 min. The selected tissues were collected, weighed, counted, and their %ID g^−1 values calculated for biodistribution analysis. The tissues included blood, muscle, tumor, thymus, heart, lung, liver, pancreas, stomach, small intestine, large intestine, spleen, adrenals, kidney, bladder, femur, and brain.

[2] = Ex vivo biodistribution in mice with U266 tumor xenografts; settings: both sexes, NSG, mouse, 60 min p.i., U266 xenograft mice; for tissue uptake at 1 h: 50 µCi; for tissue to tissue ratio at 1 h: 50 uCi, total radioactivity
Experimental: as §1, §2

[3] = both sexes, muscle, 80 µCi, MM1S xenograft mice, read-out: uptake in muscle
[4] = both sexes, pancreas, 80 µCi, total radioactivity, MM1S xenograft mice, read-out: uptake in pancreas
[5] = both sexes, small intestine (with contents), 80 µCi, MM1S xenograft mice, read-out: uptake in small intestine (with contents)
[6] = both sexes, spleen, 80 µCi, total radioactivity, MM1S xenograft mice, read-out: uptake in spleen
[7] = both sexes, stomach (with contents), 80 µCi, MM1S xenograft mice, read-out: uptake in stomach (with contents)
[8] = both sexes, thymus, 80 µCi, total radioactivity, MM1S xenograft mice, read-out: uptake in thymus
[9] = both sexes, tumor, 80 µCi, total radioactivity, MM1S xenograft mice, read-out: uptake in tumor
[10] = female, ovary, 80 µCi, MM1S xenograft mice, read-out: uptake in ovary

Structure (SMILES): CC[C@H](C)[C@@H]1NC(=O)[C@@H]2CCCN2C(=O)[C@H](Cc2ccccc2)NC(=O)[C@H](CC(=O)O)NC(=O)[C@H](C)NC(=O)[C@@H]2CSCc3cc(cc(c3)CSC[C@H](NC(=O)[C@H](C)NC(=O)CCOCCOCCOCCNC(=O)CN3CCN(CC(=O)O)CCN(CC(=O)O)CC3)C(=O)N[C@@H](C(C)C)C(=O)N3CCC[C@H]3C(=O)N2)CSC[C@@H](C(N)=O)NC(=O)[C@H](Cc2ccc(O)cc2)NC(=O)[C@H](Cc2c[nH]c3ccccc23)NC1=O [[^68Ga]Ga‐AJ206, metal not drawn]
- tissue uptake at 1 h [1, 3]: 0.13 ± 0.02 %ID/g
- tissue uptake at 1.5 h [1, 3]: 0.18 ± 0.04 %ID/g
- tissue uptake at 2 h ([1]; both sexes, muscle, 80 µCi, total radioactivity, MM1S xenograft mice, read-out: uptake in muscle): 0.09 ± 0.02 %ID/g
- tissue uptake at 1 h ([1]; both sexes, pancreas, 2 mg/kg, MM1S xenograft mice with blocking dose (2 mg kg^−1 AJ206), read-out: uptake in pancreas): 0.64 ± 0.39 %ID/g
- tissue uptake at 5 min [1, 4]: 3.55 ± 0.34 %ID/g
- tissue uptake at 0.5 h [1, 4]: 0.79 ± 0.14 %ID/g
- tissue uptake at 1 h [1, 4]: 0.19 ± 0.03 %ID/g
- tissue uptake at 1.5 h [1, 4]: 0.26 ± 0.06 %ID/g
- tissue uptake at 2 h [1, 4]: 0.17 ± 0.05 %ID/g
- tissue uptake at 5 min [1, 5]: 5 ± 0.7 %ID/g
- tissue uptake at 0.5 h [1, 5]: 0.95 ± 0.1 %ID/g
- tissue uptake at 1 h [1, 5]: 0.2 ± 0.1 %ID/g
- tissue uptake at 1.5 h [1, 5]: 0.41 ± 0.08 %ID/g
- tissue uptake at 2 h [1, 5]: 0.52 ± 0.21 %ID/g
- tissue uptake at 1 h ([1]; both sexes, small intestine, 2 mg/kg, MM1S xenograft mice with blocking dose (2 mg kg^−1 AJ206), read-out: uptake in small intestine): 0.87 ± 0.5 %ID/g
- tissue uptake at 1 h ([1]; both sexes, spleen, 2 mg/kg, MM1S xenograft mice with blocking dose (2 mg kg^−1 AJ206), read-out: uptake in spleen): 0.9 ± 0.45 %ID/g
- tissue uptake at 5 min [1, 6]: 6.41 ± 1.3 %ID/g
- tissue uptake at 0.5 h [1, 6]: 1.21 ± 0.15 %ID/g
- tissue uptake at 1 h [1, 6]: 0.41 ± 0.05 %ID/g
- tissue uptake at 1.5 h [1, 6]: 0.43 ± 0.07 %ID/g
- tissue uptake at 2 h [1, 6]: 0.28 ± 0.05 %ID/g
- tissue uptake at 5 min [1, 7]: 1.65 ± 0.19 %ID/g
- tissue uptake at 0.5 h [1, 7]: 0.54 ± 0.19 %ID/g
- tissue uptake at 1 h [1, 7]: 0.32 ± 0.21 %ID/g
- tissue uptake at 1.5 h [1, 7]: 0.82 ± 0.36 %ID/g
- tissue uptake at 2 h [1, 7]: 0.47 ± 0.3 %ID/g
- tissue uptake at 1 h ([1]; both sexes, stomach, 2 mg/kg, MM1S xenograft mice with blocking dose (2 mg kg^−1 AJ206), read-out: uptake in stomach): 1.01 ± 0.56 %ID/g
- tissue uptake at 5 min [1, 8]: 16.5 ± 5.34 %ID/g
- tissue uptake at 0.5 h [1, 8]: 2.67 ± 0.83 %ID/g
- tissue uptake at 1 h [1, 8]: 0.69 ± 0.19 %ID/g
- tissue uptake at 1.5 h [1, 8]: 0.84 ± 0.18 %ID/g
- tissue uptake at 2 h [1, 8]: 0.33 ± 0.1 %ID/g
- tissue uptake at 1 h ([1]; both sexes, tumor, 2 mg/kg, MM1S xenograft mice with blocking dose (2 mg kg^−1 AJ206), read-out: uptake in tumor): 1.37 ± 0.22 %ID/g
- tissue uptake at 5 min [1, 9]: 3.09 ± 0.16 %ID/g
- tissue uptake at 0.5 h [1, 9]: 4.15 ± 0.53 %ID/g
- tissue uptake at 1.5 h [1, 9]: 1.6 ± 0.46 %ID/g
- tissue uptake at 2 h [1, 9]: 1.3 ± 0.4 %ID/g
- tissue uptake at 1 h ([1]; both sexes, tumor, MM1S xenograft mice, read-out: uptake in tumor): 2.48 ± 0.17 %ID/g
- tissue to tissue ratio at 1 h ([1]; both sexes, tumor/blood, total radioactivity, MM1S xenograft mice with blocking dose (2 mg kg^−1 AJ206), read-out: Tumor/Blood ratio): 1.08 ± 0.4
- tissue to tissue ratio at 1 h ([1]; both sexes, tumor/blood, total radioactivity, MM1S xenograft mice, read-out: Tumor/Blood ratio): 2.9 ± 0.65
- tissue to tissue ratio at 1 h ([1]; both sexes, tumor/muscle, total radioactivity, MM1S xenograft mice with blocking dose (2 mg kg^−1 AJ206), read-out: Tumor/Muscle ratio): 8.31 ± 2.41
- tissue to tissue ratio at 1 h ([1]; both sexes, tumor/muscle, total radioactivity, MM1S xenograft mice, read-out: Tumor/Muscle ratio): 21.2 ± 3.4
- tissue uptake at 5 min [1, 10]: 4.11 ± 1.4 %ID/g
- tissue uptake at 0.5 h [1, 10]: 1.48 ± 0.32 %ID/g
- tissue uptake at 1 h [1, 10]: 0.2 ± 0.06 %ID/g
- tissue uptake at 1.5 h [1, 10]: 0.32 ± 0.14 %ID/g
- tissue uptake at 2 h [1, 10]: 0.45 ± 0.15 %ID/g
- tissue uptake at 1 h ([2]; blood, read-out: uptake in blood): 0.32 ± 0.06 %ID/g
- tissue uptake at 1 h ([2]; femur, read-out: uptake in femur): 0.13 ± 0.02 %ID/g
- tissue uptake at 1 h ([2]; heart, read-out: uptake in heart): 0.15 ± 0.02 %ID/g
- tissue uptake at 1 h ([2]; kidney, read-out: uptake in kidney): 21.5 ± 2.68 %ID/g
- tissue uptake at 1 h ([2]; liver, read-out: uptake in liver): 0.78 ± 0.06 %ID/g
- tissue uptake at 1 h ([2]; lung, read-out: uptake in lung): 0.42 ± 0.04 %ID/g
- tissue uptake at 1 h ([2]; muscle, read-out: uptake in muscle): 0.08 ± 0.01 %ID/g
- tissue uptake at 1 h ([2]; small intestine, read-out: uptake in small intestine): 0.16 ± 0.01 %ID/g
- tissue uptake at 1 h ([2]; spleen, read-out: uptake in spleen): 0.24 ± 0.01 %ID/g
- tissue uptake at 1 h ([2]; stomach, read-out: uptake in stomach): 0.39 ± 0.3 %ID/g
- tissue uptake at 1 h ([2]; tumor, read-out: uptake in tumor): 0.25 ± 0.03 %ID/g
- tissue to tissue ratio at 1 h ([2]; tumor/blood, read-out: Tumor/Blood ratio): 0.83 ± 0.09
- tissue to tissue ratio at 1 h ([2]; tumor/muscle, read-out: Tumor/Muscle ratio): 3.43 ± 0.28
